Laboratory results as given in ChEMBL document CHEMBL5360571, “Design, synthesis and in vitro/in vivo anticancer activity of tranylcypromine-based triazolopyrimidine analogs as novel LSD1 inhibitors” (Eur J Med Chem, 2023).

Legend:
NCI-H1650 [1] = test: Induction of apoptosis in human NCI-H1650 cells assessed as necrotic cells measured at 4 uM for 24 hrs by annexin V-PI staining based flow cytometric analysis (reference value: 0.008%); type: functional
MCF7 = test: cells; conditions: Homo sapiens, MCF7, 72 h
Description: Antiproliferative activity against human MCF7 cells incubated for 72 hrs by MTT assay

NCI-H1650 [2] = test: Induction of cell cycle arrest in human NCI-H1650 cells assessed as accumulation of cells in S phase measured at 2 uM for 24 hrs by annexin V-PI staining based flow cytometric analysis (reference value: 29.97%); type: functional
[3] = Toxicity in mouse xenografted with human NCI-H1650 cells assessed as increase in survival rate at 10 to 20 mg/kg, po treated for 21 days measured every 10 days for 50 days; type: organism-based; conditions: in vivo, 504 h, dose 10-20 mg/kg, time 21 day
NCI-H1650 [4] = test: Induction of apoptosis in human NCI-H1650 cells assessed as viable cells measured at 4 uM for 24 hrs by annexin V-PI staining based flow cytometric analysis (reference value: 87.4%); type: functional; conditions: read-out: Activity
NCI-H1650 [5] = test: Antitumor activity against human NCI-H1650 cells xenografted in mouse assessed as reduction of tumor weight at 20 mg/kg, po for 21 days relative to control; type: ADME, organism-based; parameters: scale not given: the % may be the effect or the level left; conditions: in vivo, 504 h, time 21 day
MGC-803 [6] = test: cells; conditions: Homo sapiens, MGC-803, 72 h
Description: Antiproliferative activity against human MGC-803 cells incubated for 72 hrs by MTT assay

GES1 = test: cells; conditions: Homo sapiens, GES1, 72 h
Description: Antiproliferative activity against human GES1 cells incubated for 72 hrs by MTT assay

NCI-H460 = test: cells; conditions: Homo sapiens, NCI-H460, 72 h
Description: Antiproliferative activity against human NCI-H460 cells incubated for 72 hrs by MTT assay

SGC-7901 = test: cells; conditions: Homo sapiens, SGC-7901, 72 h
Description: Antiproliferative activity against human SGC-7901 cells incubated for 72 hrs by MTT assay

NCI-H1650 [7] = test: Induction of cell cycle arrest in human NCI-H1650 cells assessed as accumulation of cells in G2 phase measured at 2 uM for 24 hrs by annexin V-PI staining based flow cytometric analysis (reference value: 18.00%); type: functional
PC-3 = test: cells; conditions: Homo sapiens, PC-3, 72 h
Description: Antiproliferative activity against human PC-3 cells incubated for 72 hrs by MTT assay

NCI-H1650 [8] = test: Induction of apoptosis in human NCI-H1650 cells assessed as necrotic cells measured at 1 uM for 24 hrs by annexin V-PI staining based flow cytometric analysis (reference value: 0.008%); type: functional
NCI-H1650 [9] = test: Induction of apoptosis in human NCI-H1650 cells assessed as apoptotic cells measured at 4 uM for 24 hrs by annexin V-PI staining based flow cytometric analysis (reference value: 12.7%); type: functional
NCI-H1650 [10] = test: Induction of apoptosis in human NCI-H1650 cells assessed as viable cells measured at 2 uM for 24 hrs by annexin V-PI staining based flow cytometric analysis (reference value: 87.4%); type: functional; conditions: read-out: Activity
NCI-H1650 [11] = test: Induction of apoptosis in human NCI-H1650 cells assessed as necrotic cells measured at 2 uM for 24 hrs by annexin V-PI staining based flow cytometric analysis (reference value: 0.008%); type: functional
NCI-H1650 [12] = test: Induction of cell cycle arrest in human NCI-H1650 cells assessed as accumulation of cells in G1 phase measured at 2 uM for 24 hrs by annexin V-PI staining based flow cytometric analysis (reference value: 52.04%); type: functional
NCI-H1650 [13] = test: Antitumor activity against human NCI-H1650 cells xenografted in mouse assessed as reduction of tumor weight at 10 mg/kg, po for 21 days relative to control; type: ADME, organism-based; parameters: scale not given: the % may be the effect or the level left; conditions: in vivo, 504 h, time 21 day
NCI-H1650 [14] = test: Induction of cell cycle arrest in human NCI-H1650 cells assessed as accumulation of cells in S phase measured at 4 uM for 24 hrs by annexin V-PI staining based flow cytometric analysis (reference value: 29.97%); type: functional
NCI-H1650 [15] = test: Induction of apoptosis in human NCI-H1650 cells assessed as late apoptotic cells measured at 2 uM for 24 hrs by annexin V-PI staining based flow cytometric analysis (reference value: 1.46%); type: functional
NCI-H1650 [16] = test: Induction of apoptosis in human NCI-H1650 cells assessed as apoptotic cells measured at 2 uM for 24 hrs by annexin V-PI staining based flow cytometric analysis (reference value: 12.7%); type: functional
A549 = test: cells; conditions: Homo sapiens, A549, 72 h
Description: Antiproliferative activity against human A549 cells incubated for 72 hrs by MTT assay

ECa-109 cell line = test: cells; conditions: Homo sapiens, ECa-109, 72 h
Description: Antiproliferative activity against human EC109 cells incubated for 72 hrs by MTT assay

NCI-H1650 [17] = test: Induction of cell cycle arrest in human NCI-H1650 cells assessed as accumulation of cells in G1 phase measured at 4 uM for 24 hrs by annexin V-PI staining based flow cytometric analysis (reference value: 52.04%); type: functional
NCI-H1650 [18] = test: Induction of apoptosis in human NCI-H1650 cells assessed as early apoptotic cells measured at 4 uM for 24 hrs by annexin V-PI staining based flow cytometric analysis (reference value: 11.2%); type: functional
NCI-H1650 [19] = test: cells; conditions: Homo sapiens, NCI-H1650, 72 h
Description: Antiproliferative activity against human NCI-H1650 cells incubated for 72 hrs by MTT assay

NCI-H1650 [20] = test: Induction of cell cycle arrest in human NCI-H1650 cells assessed as accumulation of cells in G1 phase measured at 1 uM for 24 hrs by annexin V-PI staining based flow cytometric analysis (reference value: 52.04%); type: functional
[21] = target: T1, MAO-B (amine oxidase [flavin-containing] B) (Homo sapiens, UniProt P27338); test: Inhibition of recombinant MAO-B (unknown origin) using luciferin derivative as substrate measured at 1 uM for 60 mins by plate reader analysis relative to control; conditions: probe luciferin derivative
T1 sequence (P27338 whole entry): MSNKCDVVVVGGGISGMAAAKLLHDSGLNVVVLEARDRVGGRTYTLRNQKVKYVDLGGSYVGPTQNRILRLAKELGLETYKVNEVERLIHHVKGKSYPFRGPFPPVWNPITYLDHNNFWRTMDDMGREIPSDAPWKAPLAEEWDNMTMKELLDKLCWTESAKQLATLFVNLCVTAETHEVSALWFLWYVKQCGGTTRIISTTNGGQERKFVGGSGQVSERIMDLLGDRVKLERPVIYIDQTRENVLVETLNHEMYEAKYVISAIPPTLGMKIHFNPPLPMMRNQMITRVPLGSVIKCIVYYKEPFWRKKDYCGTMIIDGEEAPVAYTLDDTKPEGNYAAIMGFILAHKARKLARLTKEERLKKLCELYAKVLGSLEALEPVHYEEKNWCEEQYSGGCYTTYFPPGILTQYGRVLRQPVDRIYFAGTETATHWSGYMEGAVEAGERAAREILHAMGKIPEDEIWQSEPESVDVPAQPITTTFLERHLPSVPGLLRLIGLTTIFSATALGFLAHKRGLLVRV

NCI-H1650 [22] = test: Induction of apoptosis in human NCI-H1650 cells assessed as early apoptotic cells measured at 1 uM for 24 hrs by annexin V-PI staining based flow cytometric analysis (reference value: 11.2%); type: functional
NCI-H1650 [23] = test: Induction of cell cycle arrest in human NCI-H1650 cells assessed as accumulation of cells in G2 phase measured at 4 uM for 24 hrs by annexin V-PI staining based flow cytometric analysis (reference value: 18.00%); type: functional
NCI-H1650 [24] = test: Induction of cell cycle arrest in human NCI-H1650 cells assessed as accumulation of cells in S phase measured at 1 uM for 24 hrs by annexin V-PI staining based flow cytometric analysis (reference value: 29.97%); type: functional
NCI-H1650 [25] = test: Induction of apoptosis in human NCI-H1650 cells assessed as viable cells measured at 1 uM for 24 hrs by annexin V-PI staining based flow cytometric analysis (reference value: 87.4%); type: functional; conditions: read-out: Activity
NCI-H1650 [26] = test: Induction of apoptosis in human NCI-H1650 cells assessed as late apoptotic cells measured at 1 uM for 24 hrs by annexin V-PI staining based flow cytometric analysis (reference value: 1.46%); type: functional
MGC-803 [27] = test: cells; conditions: Homo sapiens, MGC-803, 72 h; remark: listed apart in the source
Description: Antiproliferative activity against human MGC-803 LSD knock out cells incubated for 72 hrs by MTT assay

NCI-H1650 [28] = test: Induction of apoptosis in human NCI-H1650 cells assessed as early apoptotic cells measured at 2 uM for 24 hrs by annexin V-PI staining based flow cytometric analysis (reference value: 11.2%); type: functional
NCI-H1650 [29] = test: Induction of apoptosis in human NCI-H1650 cells assessed as apoptotic cells measured at 1 uM for 24 hrs by annexin V-PI staining based flow cytometric analysis (reference value: 12.7%); type: functional
[30] = target: T2, MAO-A (amine oxidase [flavin-containing] A) (Homo sapiens, UniProt P21397); test: Inhibition of recombinant MAO-A (unknown origin) using luciferin derivative as substrate measured at 1 uM for 60 mins by plate reader analysis relative to control; conditions: probe luciferin derivative
T2 sequence (P21397 whole entry): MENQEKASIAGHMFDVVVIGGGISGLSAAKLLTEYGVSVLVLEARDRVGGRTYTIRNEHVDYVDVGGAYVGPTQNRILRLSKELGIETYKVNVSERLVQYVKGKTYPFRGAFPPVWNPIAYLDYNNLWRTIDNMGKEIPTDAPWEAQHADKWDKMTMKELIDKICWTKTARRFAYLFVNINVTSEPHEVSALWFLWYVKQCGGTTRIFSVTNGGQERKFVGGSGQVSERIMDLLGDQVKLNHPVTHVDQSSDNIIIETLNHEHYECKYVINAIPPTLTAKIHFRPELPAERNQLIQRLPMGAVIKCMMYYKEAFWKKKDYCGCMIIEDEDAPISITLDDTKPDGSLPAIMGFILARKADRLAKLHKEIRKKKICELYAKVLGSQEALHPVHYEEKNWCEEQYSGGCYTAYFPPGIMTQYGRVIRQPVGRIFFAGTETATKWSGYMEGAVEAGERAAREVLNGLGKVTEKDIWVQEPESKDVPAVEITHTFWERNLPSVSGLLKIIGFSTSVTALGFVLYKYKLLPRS

NCI-H1650 [31] = test: Induction of apoptosis in human NCI-H1650 cells assessed as late apoptotic cells measured at 4 uM for 24 hrs by annexin V-PI staining based flow cytometric analysis (reference value: 1.46%); type: functional
[32] = Toxicity in mouse xenografted with human NCI-H1650 cells assessed as change in body weight at 10 to 20 mg/kg, po measured every 4 days for 21 days; type: organism-based; conditions: in vivo, 504 h, dose 10-20 mg/kg, time 21 day
NCI-H1650 [33] = test: Induction of cell cycle arrest in human NCI-H1650 cells assessed as accumulation of cells in G2 phase measured at 1 uM for 24 hrs by annexin V-PI staining based flow cytometric analysis (reference value: 18.00%); type: functional

For `CCCSc1nc(Oc2c(OC)cc(CN[C@@H]3C[C@H]3c3ccccc3)cc2OC)c2nnn(Cc3cccc(Cl)c3)c2n1`, the Activity (NCI-H1650 [1]) was 0.041%, the IC50 (MCF7) was 13.4 µM and the Activity (NCI-H1650 [2]) was 39.81%. The Activity [3] was “Non-Toxic”, the viability at 4 µM (NCI-H1650 [4]) was 54.3% and the Activity (NCI-H1650 [5]) was 64%. For the same compound, the IC50 (MGC-803 [6]) was 5.1 µM, the IC50 (GES1) was > 20 µM and the IC50 (NCI-H460) was 13.6 µM. It also gave an IC50 (SGC-7901) of 9.5 µM, an Activity (NCI-H1650 [7]) of 10.6% and an IC50 (PC-3) of 7.5 µM. For the same compound, the Activity (NCI-H1650 [8]) was 0.022%, the Activity (NCI-H1650 [9]) was 45.7% and the viability at 2 µM (NCI-H1650 [10]) was 55.4%. It also gave an Activity (NCI-H1650 [11]) of 0.138%, an Activity (NCI-H1650 [12]) of 49.59% and an Activity (NCI-H1650 [13]) of 41.5%. The Activity (NCI-H1650 [14]) was 43.26%, the Activity (NCI-H1650 [15]) was 6.02% and the Activity (NCI-H1650 [16]) was 44.5%. The IC50 (A549) was 7.9 µM, the IC50 (ECa-109 cell line) was 15.2 µM and the Activity (NCI-H1650 [17]) was 48.98%. For the same compound, the Activity (NCI-H1650 [18]) was 38.4%, the IC50 (NCI-H1650 [19]) was 4.3 µM and the Activity (NCI-H1650 [20]) was 51.44%. The inhibition at 1 h, 1 µM [21] was 52%, the Activity (NCI-H1650 [22]) was 40.3% and the Activity (NCI-H1650 [23]) was 7.76%. It also gave an Activity (NCI-H1650 [24]) of 33.32%, a viability at 1 µM (NCI-H1650 [25]) of 56.1% and an Activity (NCI-H1650 [26]) of 3.6%. For the same compound, the IC50 (MGC-803 [27]) was > 20 µM, the Activity (NCI-H1650 [28]) was 38.5% and the Activity (NCI-H1650 [29]) was 43.9%. For the same compound, the inhibition at 1 h, 1 µM [30] was 25.5%, the Activity (NCI-H1650 [31]) was 7.32% and the Activity [32] was “Non-Toxic”. For the same compound, the Activity (NCI-H1650 [33]) was 15.24%.
